59 sequences from the supplement of paper PMC11208160 can be followed below.
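Also: IS621 recombinase and bridge RNA in Escherichia coli cells.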

This data set in a line: recombinant barcode read abundance after kanamycin selection (control-corrected) (log10(CPM+1)); higher = more efficient recombination; sequences stand for … in AGTGCAGAGAAAATCGGCCAGTTTTCTCTGCCTGCAGTCCGCATGCCGT…AGATTTATGCAGCGGACTGCCTTTCTCCCAAAGTGATAAACCGGACAGTATCATGGACCGGTTTTCCCGGTAATCCGTATTTGCAAGGTTGGTTTCACT; site = the 11-nt target. Put shortly:
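Targets were screened in pooled form in E. coli against IS621 bridge RNA target-binding loops. Recombination efficiency is based on barcode counts at recombinant junctions in counts per million, averaged and corrected for the control. Numbers are shown as log10(CPM+1), with duplicate plates on chloramphenicol/ampicillin LB agar (control) or chloramphenicol/ampicillin/kanamycin with 0.1 mM IPTG.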
Regarding “CGCCCTCCTTGGGTTCTAACCTGTTGCAT (site CGCCATCCTAT)”, the “recombinant barcode read abundance (log10)” value was found to be 0.0837.

With “CGCCCTCCTTGGGTTCTAACCTGTTGCAT (site CGCCCTCCTAT)”, the “recombinant barcode read abundance (log10)” value is 0.362.

Take “CGCCCTCCTTGGGTTCTAACCTGTTGCAT (site CGCCGTCCTAT)”: the “recombinant barcode read abundance (log10)” value came to 0.117.

For the sequence “CGCCCTCCTTGGGTTCTAACCTGTTGCAT (site CGCCTTCCTAT)”, the “recombinant barcode read abundance (log10)” value was determined as 0.0322.

Take “CGCCGCCCTTGGGTTCTAACCTGTTGCCT (site AGCCGCCCTAT)”: the “recombinant barcode read abundance (log10)” value was 0.447.

Turning to “CGCCGCCCTTGGGTTCTAACCTGTTGCCT (site CGCCGCCCTAG)”, the “recombinant barcode read abundance (log10)” value was found to be 0.18.

With “CGCCTCTCTTGGGTTCTAACCTGTTGCCT (site CGCCTCACTAG)”, the “recombinant barcode read abundance (log10)” value came to 0.0921.

Take “CGCCTCTCTTGGGTTCTAACCTGTTGCCT (site CGCCTCCCTAG)”: the “recombinant barcode read abundance (log10)” value is 0.211.

For “CGCCTCTCTTGGGTTCTAACCTGTTGCCT (site CGCCTCGCTAG)”, the “recombinant barcode read abundance (log10)” value came to 0.307.

Take “CGCCTCTCTTGGGTTCTAACCTGTTGCCT (site CGCCTCTCTAG)”: the “recombinant barcode read abundance (log10)” value was 0.0707.

As to “CGCGAATCTTGGGTTCTAACCTGTTGCTT (site CGCGAATCTAA)”, the “recombinant barcode read abundance (log10)” value is 0.0373.

With “CGCGAATCTTGGGTTCTAACCTGTTGCTT (site CGCGGGTCTAA)”, the “recombinant barcode read abundance (log10)” value worked out at 0.168.

As to “CGCGCGGCTTGGGTTCTAACCTGTTGCCT (site CGCGCGGCTAG)”, the “recombinant barcode read abundance (log10)” value was determined as 0.251.

Consider “CGCGCGGCTTGGGTTCTAACCTGTTGCCT (site CGCGGGGCTAG)”, for which the “recombinant barcode read abundance (log10)” value worked out at 0.266.

With “CGCGGTTCTTGGGTTCTAACCTGTTGCCT (site CGAGGTTCTAG)”, the “recombinant barcode read abundance (log10)” value is 0.339.

For the sequence “CGCGGTTCTTGGGTTCTAACCTGTTGCCT (site CGCGGTTCTAG)”, the “recombinant barcode read abundance (log10)” value was 0.0855.

For the sequence “CGCGTTGCTTGGGTTCTAACCTGTTGCCT (site AAGCCCACTCC)”, the “recombinant barcode read abundance (log10)” value worked out at 0.0136.

In the case of “CGCGTTGCTTGGGTTCTAACCTGTTGCCT (site CGCGTTGCTAG)”, the “recombinant barcode read abundance (log10)” value was 0.48.

For “CGCTCGTCTTGGGTTCTAACCTGTTGCCT (site CGCTAGTCTAG)”, the “recombinant barcode read abundance (log10)” value was determined as 0.0163.

On to “CGCTCGTCTTGGGTTCTAACCTGTTGCCT (site CGCTCGTCTAG)”, for which the “recombinant barcode read abundance (log10)” value was determined as 0.00559.

As to “CGCTCGTCTTGGGTTCTAACCTGTTGCCT (site CGCTGGTCTAG)”, the “recombinant barcode read abundance (log10)” value came out at 0.0376.

For the sequence “CGCTCGTCTTGGGTTCTAACCTGTTGCCT (site CGCTTGTCTAG)”, the “recombinant barcode read abundance (log10)” value is 0.163.

“CGCTGTCCTTGGGTTCTAACCTGTTGCTT (site CGCTGACCTAA)”: the “recombinant barcode read abundance (log10)” value worked out at 0.156.

For the sequence “CGCTGTCCTTGGGTTCTAACCTGTTGCTT (site CGCTGCCCTAA)”, the “recombinant barcode read abundance (log10)” value amounted to 0.148.

With “CGCTGTCCTTGGGTTCTAACCTGTTGCTT (site CGCTGGCCTAA)”, the “recombinant barcode read abundance (log10)” value was 0.348.

On to “CGCTGTCCTTGGGTTCTAACCTGTTGCTT (site CGCTGTCCTAA)”, for which the “recombinant barcode read abundance (log10)” value is 0.176.

Take “CGGAACCCTTGGGTTCTAACCTGTTGCCG (site CGGAACCCTCG)”: the “recombinant barcode read abundance (log10)” value was 1.22.

For “CGGAACCCTTGGGTTCTAACCTGTTGCCG (site CGGAGCCCTTG)”, the “recombinant barcode read abundance (log10)” value was 0.11.

On to “CGGAAGACTTGGGTTCTAACCTGTTGCCT (site CGGAAGACTAG)”, for which the “recombinant barcode read abundance (log10)” value turned out to be 1.98.

On to “CGGAAGACTTGGGTTCTAACCTGTTGCCT (site CGGAAGCCTAG)”, for which the “recombinant barcode read abundance (log10)” value came to 0.121.

As for “CGGAAGACTTGGGTTCTAACCTGTTGCCT (site CGGAAGGCTAG)”, the “recombinant barcode read abundance (log10)” value came to 0.537.

In the case of “CGGAAGACTTGGGTTCTAACCTGTTGCCT (site CGGAAGTCTAG)”, the “recombinant barcode read abundance (log10)” value was 0.516.

In the case of “CGGAAGCCTTGGGTTCTAACCTGTTGCCT (site CGGAAGACTAG)”, the “recombinant barcode read abundance (log10)” value came to 0.0744.

As to “CGGAAGCCTTGGGTTCTAACCTGTTGCCT (site CGGAAGCCTAG)”, the “recombinant barcode read abundance (log10)” value was found to be 1.74.

As to “CGGAAGCCTTGGGTTCTAACCTGTTGCCT (site CGGAAGGCTAG)”, the “recombinant barcode read abundance (log10)” value is 0.0821.

As to “CGGAAGCCTTGGGTTCTAACCTGTTGCCT (site CGGAAGTCTAG)”, the “recombinant barcode read abundance (log10)” value turned out to be 0.818.

For “CGGAAGGCTTGGGTTCTAACCTGTTGCCT (site CGGAAGACTAG)”, the “recombinant barcode read abundance (log10)” value is 0.036.

Consider “CGGAAGGCTTGGGTTCTAACCTGTTGCCT (site CGGAAGCCTAG)”, for which the “recombinant barcode read abundance (log10)” value was 0.0918.

For “CGGAAGGCTTGGGTTCTAACCTGTTGCCT (site CGGAAGGCTAG)”, the “recombinant barcode read abundance (log10)” value turned out to be 0.89.

Regarding “CGGAAGGCTTGGGTTCTAACCTGTTGCCT (site CGGAAGTCTAG)”, the “recombinant barcode read abundance (log10)” value turned out to be 0.401.

In the case of “CGGAATCCTTGGGTTCTAACCTGTTGCGT (site CGGAATCCTAA)”, the “recombinant barcode read abundance (log10)” value stood at 0.159.

With “CGGAATCCTTGGGTTCTAACCTGTTGCGT (site CGGAATCCTAC)”, the “recombinant barcode read abundance (log10)” value came out at 2.33.

Consider “CGGAATCCTTGGGTTCTAACCTGTTGCGT (site CGGAATCCTAG)”, for which the “recombinant barcode read abundance (log10)” value came out at 0.345.

As to “CGGAATCCTTGGGTTCTAACCTGTTGCGT (site CGGAATCCTAT)”, the “recombinant barcode read abundance (log10)” value stood at 1.19.

Take “CGGACGTCTTGGGTTCTAACCTGTTGCTG (site CGGACGTCTCA)”: the “recombinant barcode read abundance (log10)” value was determined as 1.69.

In the case of “CGGACGTCTTGGGTTCTAACCTGTTGCTG (site CGGGCGTCTAA)”, the “recombinant barcode read abundance (log10)” value was determined as 0.0605.

As for “CGGACTGCTTGGGTTCTAACCTGTTGCCT (site ACCTGACCTCC)”, the “recombinant barcode read abundance (log10)” value was found to be 0.0853.

Consider “CGGACTGCTTGGGTTCTAACCTGTTGCCT (site CGGACTGCTAG)”, for which the “recombinant barcode read abundance (log10)” value was found to be 0.374.

With “CGGAGCCCTTGGGTTCTAACCTGTTGCCA (site CGGAACCCTCG)”, the “recombinant barcode read abundance (log10)” value was determined as 0.0889.

On to “CGGAGCCCTTGGGTTCTAACCTGTTGCCA (site CGGAGCCCTTG)”, for which the “recombinant barcode read abundance (log10)” value is 0.883.

Consider “CGGAGTCCTTGGGTTCTAACCTGTTGCTA (site CGGAGTCCTTA)”, for which the “recombinant barcode read abundance (log10)” value amounted to 0.774.

Turning to “CGGAGTCCTTGGGTTCTAACCTGTTGCTA (site CGGCGTCCTTA)”, the “recombinant barcode read abundance (log10)” value was 0.113.

Consider “CGGAGTCCTTGGGTTCTAACCTGTTGCTA (site CGGGGTCCTTA)”, for which the “recombinant barcode read abundance (log10)” value was determined as 0.0775.

For “CGGAGTCCTTGGGTTCTAACCTGTTGCTA (site CGGTGTCCTTA)”, the “recombinant barcode read abundance (log10)” value turned out to be 0.102.

In the case of “CGGCAGTCTTGGGTTCTAACCTGTTGCGT (site CGACAGTCTAC)”, the “recombinant barcode read abundance (log10)” value amounted to 2.34.

Take “CGGCAGTCTTGGGTTCTAACCTGTTGCGT (site CGGCAGTCTAC)”: the “recombinant barcode read abundance (log10)” value worked out at 2.6.

For the sequence “CGGCCCTCTTGGGTTCTAACCTGTTGCCT (site CAGCCCTCTAG)”, the “recombinant barcode read abundance (log10)” value is 1.23.

As for “CGGCCCTCTTGGGTTCTAACCTGTTGCCT (site CCGCCCTCTAG)”, the “recombinant barcode read abundance (log10)” value was found to be 0.29.

For “CGGCCCTCTTGGGTTCTAACCTGTTGCCT (site CGGCCCTCTAG)”, the “recombinant barcode read abundance (log10)” value turned out to be 2.52.
